Assays:
Assay type in all cases: physicochemical
[1] = Stability experiments: heating (vacuum oven); details: 2-3 mbar
[2] = Stability experiments: ageing (humidity chamber)
[3] = Stability experiments: ageing (ambient conditions); details: for Time stable at ambient conditions: monohydrate
[4] = Dynamic vapor sorption
Description: The sodium (S)-{8-fluoro-2-[4-(3-methoxyphenyl)piperazine-1-yl]-3-[2-methoxy (trifluoromethyl)phenyl]-3,4-dihydroquinazoline-4-yl}acetate monohydrate obtained from examples 07 and 08 were analyzed using X-Ray Diffraction, NMR spectroscopy, Thermal gravimetric analysis, Differential scanning calorimetry and dynamic vapor sorption.

[5] = Thermal stability / decomposition by thermogravimetric analysis (TGA)
Description: Thermogravimetric analysis (TGA): Thermogravimetric analyses were recorded in a Mettler Toledo TGA/SDTA851 with a balance MT1 type. Approximately 3-4 mg of sample were weighed (using a MX5 Mettler Toledo microbalance) into 40 μL aluminium crucibles with a pinhole lid and heated under nitrogen (10 mL/min) at 10° C./min from 30° C. to 300° C. Programs used: Data collection and evaluation with software STARe.

[6] = Solubility in an aqueous medium; details: in particular at physiological pH
[7] = Storage stability in an aqueous medium; details: in particular at physiological pH

| SMILES | Stability, heating (vacuum oven) ([1]; 40° C., 15 h) | Stability, heating (vacuum oven) ([1]; 50° C., 60 h) | Stability, ageing (humidity chamber) ([2]; 25° C./60% RH, 72 hours) | Stability, ageing (humidity chamber) ([2]; 30° C./75% RH, 48 hours) | Ageing at higher temperatures and higher humidity ([2]; higher temperatures and higher humidity) | Stability, ageing (ambient conditions, closed vial) ([3]; after 4 weeks) | Time stable at ambient conditions ([3]; listed as Form B) | Time stable at ambient conditions [3] | Dynamic vapor sorption weight increase ([4]; from 10 to 80% RH) | Dynamic vapor sorption weight increase ([4]; from 80 to 90% RH) | Temperature up to which thermally stable (TGA) ([5]; as judged by TGA) | Solubility [6] | Storage stability [7] | Stability, ageing (humidity chamber) ([2]; 25° C./60% RH, 24-72 hours) | Stability under ambient conditions (in words) [3] | Stability, ageing (ambient conditions) ([3]; 25° C., 30-40% RH, 24 hours) | Stability, ageing (ambient conditions) ([3]; within 24 hours) | Decomposition temperature (TGA) ([5]; TGA) |
| --- | --- | --- | --- | --- | --- | --- | --- | --- | --- | --- | --- | --- | --- | --- | --- | --- | --- | --- |
| COc1cccc(N2CCN(C3=Nc4c(F)cccc4[C@H](CC(=O)[O-])N3c3cc(C(F)(F)F)ccc3OC)CC2)c1.O.[Na+] [sodium letermovir monohydrate, sodium 2-[(4S)-8-fluoro-2-[4-(3-methoxyphenyl)piperazin-1-yl]-3-[2-methoxy-5-(trifluoromethyl)phenyl]-4H-quinazolin-4-yl]acetate monohydrate] | 40° C., 2-3 mbar, 15 h: No changes, | 50° C., 2-3 mbar, 60 h: No changes | 25° C./60% RH, 72 hours: minor changes | 30° C./75% RH, 48 hours: amorphous | does not age | No significant changes after 4 weeks. | over 6 months | over 4 weeks | >9.5% weight increase from 10 to 80% RH | >8% weight increase from 80 to 90% RH | above 80 °C | readily soluble | good storage stability | – | – | – | – | – |
| COc1cccc(N2CCN(C3=Nc4c(F)cccc4[C@H](CC(=O)[O-])N3c3cc(C(F)(F)F)ccc3OC)CC2)c1.[Na+] [Form A, Sodium (S)-{8-fluoro-2-[4-(3-methoxyphenyl)piperazine-1-yl]-3-[2-methoxy-5-(trifluoromethyl)phenyl]-3,4-dihydroquinazoline-4-yl}acetate] | – | – | – | – | – | – | – | – | – | – | – | – | – | 25° C./60% RH, 24-72 hours: Turns into | not stable under ambient conditions | 25° C., 30-40% RH, 24 hours: Turns into | Complete transition into Form B within in | Decomposition at ca. 250 °C |
